As usually defined, the IC50 is the concentration that inhibits the measured activity by half. High values mean a need for much substance, low ones inhibition by little substance.

The values that follow come from article PMC9291665, “Discovery and SAR analysis of 5-chloro-4-((substituted phenyl)amino)pyrimidine bearing histone deacetylase inhibitors” (Journal of Enzyme Inhibition and Medicinal Chemistry, 2022).

Experiment [1] relates to MDA-MB-468. The experiment is described as follows: In vitro antiproliferative assay (CCK-8), MDA-MB-468. Particulars: Homo sapiens, CCK-8, 72 h. Type of experiment: cell-based. As to the method: (§1) Compound L20 with good performances in both enzyme and K562 cell inhibitory tests were selected for further antiproliferative assay against various cell lines. K562, U266, U937, C6, Fadu, MDA-MB-231, MDA-MB-468, A549, A2780 and HepG2 cell lines were used in the cell-based anticancer evaluation of L20.
(§2) The proliferation of cancer cells was tested by CCK-8 assay. Briefly, cells were seeded in 96-well plate with about 5 × 10^3 cells in each well. The cells were treated with tested compounds after 24 h of incubation. CCK-8 reagent ([…]) was added to each well after 72 h of incubation, and cells were incubated at 37 °C for 4 h. The light absorbance at 450 nm was measured by using an Opsys microplate reader (Dynex Technologies, Chantilly, VA, USA). Results are illustrated as percent of cell viability normalised to DMSO-treated control cells.

The test system of experiment [2] is Fadu. Nature of the experiment: In vitro antiproliferative assay (CCK-8), Fadu. Conditions: Homo sapiens, CCK-8, 72 h. Type of experiment: cell-based. As to the method:
(§3) The proliferation of cancer cells was tested by CCK-8 assay. Briefly, cells were seeded in 96-well plate with about 5 × 10^3 cells in each well. The cells were treated with tested compounds after 24 h of incubation. CCK-8 reagent ([…]) was added to each well after 72 h of incubation, and cells were incubated at 37 °C for 4 h. The light absorbance at 450 nm was measured by using an Opsys microplate reader (Dynex Technologies, Chantilly, VA, USA).

For experiment [3], the system named is A549. The experiment is described as follows: In vitro antiproliferative assay (CCK-8), A549. Type of experiment: cell-based. Particulars: Homo sapiens, CCK-8, 72 h. As to the method:
as §3

The test system of experiment [4] is U937. Nature of the experiment: In vitro antiproliferative assay (CCK-8), U937. Type of experiment: cell-based. Conditions: Homo sapiens, U-937, CCK-8, 72 h. As to the method: as §3
Experiment [5] addresses T1, HDAC1 (Homo sapiens, UniProt Q13547).
T1 construct: purchased BPS Bioscience
Nature of the experiment: HDAC enzyme inhibitory selectivity test, HDAC1. Type of experiment: biochemical. The protocol:
(§4) Therefore, molecule L20 was evaluated in the HDAC enzyme inhibitory selectivity test against HDAC1, 2, 3 and 6 (Table 2).
(§5) All HDAC enzymes were purchased from BPS Bioscience. In short, 60 µL of recombinant HDAC enzyme solution was mixed with various concentrations of test compound (40 µL), and then incubated at 37 °C for 30 minutes. The reaction was terminated by adding 100 µL of imaging agent containing trypsin and trichostatin A (TSA). After standing for 20 min, the fluorescence intensity was measured at the excitation and emission wavelengths of 360 and 460 nm with a microplate reader. The inhibition rate was calculated from the fluorescence intensity readings of the test wells relative to the control wells, and the IC50 curve and value were determined by GraphPad Prism 6.0 software.

For experiment [6], the system named is K562 cells. The experiment is described as follows: In vitro antiproliferative assay (CCK-8), K562. Type of experiment: cell-based. Conditions: Homo sapiens. As to the method: as §3
The test system of experiment [7] is HepG2. Nature of the experiment: In vitro antiproliferative assay (CCK-8), HepG2. Type of experiment: cell-based. Conditions: Homo sapiens, CCK-8, 72 h. The protocol:
as §3

The test system of experiment [8] is Hela nucleus extract containing a mixture of HDAC isoforms. Nature of the experiment: HDAC enzyme inhibitory screening against Hela nucleus extract. Type of experiment: biochemical. Conditions: at concentration of 1.0 µM, mean of three experiments. The protocol:
The synthesised molecules were firstly screened against Hela nucleus extract containing a mixture of HDAC isoforms.
as §5

Experiment [9] relates to C6. Nature of the experiment: In vitro antiproliferative assay (CCK-8), C6. Conditions: Rattus norvegicus, CCK-8, 72 h. Type of experiment: cell-based. As to the method: as §3
The test system of experiment [10] is K562 cells. The experiment is described as follows: Cell apoptosis analysis by flow cytometry (Annexin V-BV421 / 7-AAD). Conditions: 24 h, control 1.14%. (In general: Flow cytometry measures light scatter and fluorescence of single cells or particles in a stream.)
Description: Cells were incubated with Annexin V-BV421 (Becton Dickinson, USA) and 7-AAD (Becton Dickinson, USA) double labelling for 30 min in the dark at room temperature and measured by flow cytometry (FACSAriaIII, Becton Dickinson, USA). The data was analysed using Flowjo-V10 software.
Experiment [11] concerns A2780. The experiment is described as follows: In vitro antiproliferative assay (CCK-8), A2780. Type of experiment: cell-based. Particulars: Homo sapiens, CCK-8, 72 h. The protocol: as §3
In experiment [12] the target is T2, HDAC6 (Homo sapiens, UniProt Q9UBN7).
T2 construct: purchased BPS Bioscience
T2 sequence (Q9UBN7 1-1215): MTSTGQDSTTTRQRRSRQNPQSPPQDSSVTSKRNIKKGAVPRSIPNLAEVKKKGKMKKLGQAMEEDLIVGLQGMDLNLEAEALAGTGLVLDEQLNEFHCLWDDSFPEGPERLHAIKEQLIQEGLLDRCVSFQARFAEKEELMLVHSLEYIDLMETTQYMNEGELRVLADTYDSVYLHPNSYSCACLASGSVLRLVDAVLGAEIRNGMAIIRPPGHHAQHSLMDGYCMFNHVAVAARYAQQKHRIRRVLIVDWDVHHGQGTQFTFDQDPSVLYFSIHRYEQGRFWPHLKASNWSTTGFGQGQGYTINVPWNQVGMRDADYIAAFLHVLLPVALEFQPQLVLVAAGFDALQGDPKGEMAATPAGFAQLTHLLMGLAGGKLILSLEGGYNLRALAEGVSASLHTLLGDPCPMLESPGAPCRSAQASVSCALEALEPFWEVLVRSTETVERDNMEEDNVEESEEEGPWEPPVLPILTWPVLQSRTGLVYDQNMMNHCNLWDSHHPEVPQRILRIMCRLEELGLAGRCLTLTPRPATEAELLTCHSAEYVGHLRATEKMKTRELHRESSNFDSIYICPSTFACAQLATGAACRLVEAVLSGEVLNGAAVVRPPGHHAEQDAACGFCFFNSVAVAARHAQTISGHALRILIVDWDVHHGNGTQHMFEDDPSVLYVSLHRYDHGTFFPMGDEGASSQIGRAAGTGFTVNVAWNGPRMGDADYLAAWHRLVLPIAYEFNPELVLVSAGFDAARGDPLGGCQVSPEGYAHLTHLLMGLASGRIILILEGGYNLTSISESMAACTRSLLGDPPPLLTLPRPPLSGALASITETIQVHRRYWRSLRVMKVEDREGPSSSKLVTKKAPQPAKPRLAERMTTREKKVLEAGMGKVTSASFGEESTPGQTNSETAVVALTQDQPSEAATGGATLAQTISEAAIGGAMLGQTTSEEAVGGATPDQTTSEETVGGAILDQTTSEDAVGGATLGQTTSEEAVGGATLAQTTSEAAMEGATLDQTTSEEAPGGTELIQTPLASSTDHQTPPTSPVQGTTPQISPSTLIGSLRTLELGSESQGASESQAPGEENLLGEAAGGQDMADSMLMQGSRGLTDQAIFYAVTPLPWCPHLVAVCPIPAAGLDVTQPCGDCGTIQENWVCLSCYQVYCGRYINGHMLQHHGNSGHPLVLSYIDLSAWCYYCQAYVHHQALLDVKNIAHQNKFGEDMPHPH
Nature of the experiment: HDAC enzyme inhibitory selectivity test, HDAC6. Type of experiment: biochemical. Conditions: mean of three experiments. The protocol: as §4, §5

In experiment [13] the target is T3, HDAC3 (Homo sapiens, UniProt O15379).
T3 construct: purchased BPS Bioscience
T3 sequence (O15379 whole entry): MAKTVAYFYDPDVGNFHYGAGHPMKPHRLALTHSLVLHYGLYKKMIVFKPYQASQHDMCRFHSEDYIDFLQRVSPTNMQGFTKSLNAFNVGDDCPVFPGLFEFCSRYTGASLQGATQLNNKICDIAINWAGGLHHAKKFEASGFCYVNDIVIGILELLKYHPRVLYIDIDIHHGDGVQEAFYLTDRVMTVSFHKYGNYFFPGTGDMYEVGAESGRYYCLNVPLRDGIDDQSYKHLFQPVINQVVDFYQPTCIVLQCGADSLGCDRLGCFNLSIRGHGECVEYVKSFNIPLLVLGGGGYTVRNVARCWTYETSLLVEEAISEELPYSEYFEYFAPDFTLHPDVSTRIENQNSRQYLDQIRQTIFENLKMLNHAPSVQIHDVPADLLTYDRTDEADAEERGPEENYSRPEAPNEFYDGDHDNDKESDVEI
T3 sequence (Q9Y618 395-489 partner limits assumed): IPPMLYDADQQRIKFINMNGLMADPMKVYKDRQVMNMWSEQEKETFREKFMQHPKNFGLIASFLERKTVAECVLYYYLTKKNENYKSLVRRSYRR
The experiment is described as follows: HDAC enzyme inhibitory selectivity test, HDAC3. Type of experiment: biochemical. As to the method: as §4, §5

For experiment [14], the system named is K562 cells. The experiment is described as follows: Cell cycle analysis by flow cytometry (PI). Particulars: 24 h, first peak in Figure 5.
Description: After treatment, cells were collected and fixed with 70% pre-cold ethanol in PBS and stored at −20 °C overnight. Then washed the cells with PBS twice, and incubated with 100 µg/mL RNase I (Solarbio, China) at 37 °C for 1 h, stained with propidium iodide (PI, 10 µg/mL, Solarbio, China) for 30 min avoid light at room temperature. Finally, DNA content was measured by flow cytometry (FACSAriaIII, Becton Dickinson, USA). The data were analysed and fitted by ModFit software.
Experiment [15] has as its system U266. The experiment is described as follows: In vitro antiproliferative assay (CCK-8), U266. Type of experiment: cell-based. Conditions: Homo sapiens, U-266, CCK-8, 72 h. As to the method:
as §3

The test system of experiment [16] is MDA-MB-231. Nature of the experiment: In vitro antiproliferative assay (CCK-8), MDA-MB-231. Type of experiment: cell-based. Conditions: Homo sapiens, CCK-8, 72 h. As to the method:
as §1, §2

Experiment [17] has as its target T4, HDAC2 (Homo sapiens, UniProt Q92769).
T4 construct: purchased BPS Bioscience
Nature of the experiment: HDAC enzyme inhibitory selectivity test, HDAC2. Type of experiment: biochemical. As to the method:
as §4, §5

T1 sequence (Q13547 whole entry): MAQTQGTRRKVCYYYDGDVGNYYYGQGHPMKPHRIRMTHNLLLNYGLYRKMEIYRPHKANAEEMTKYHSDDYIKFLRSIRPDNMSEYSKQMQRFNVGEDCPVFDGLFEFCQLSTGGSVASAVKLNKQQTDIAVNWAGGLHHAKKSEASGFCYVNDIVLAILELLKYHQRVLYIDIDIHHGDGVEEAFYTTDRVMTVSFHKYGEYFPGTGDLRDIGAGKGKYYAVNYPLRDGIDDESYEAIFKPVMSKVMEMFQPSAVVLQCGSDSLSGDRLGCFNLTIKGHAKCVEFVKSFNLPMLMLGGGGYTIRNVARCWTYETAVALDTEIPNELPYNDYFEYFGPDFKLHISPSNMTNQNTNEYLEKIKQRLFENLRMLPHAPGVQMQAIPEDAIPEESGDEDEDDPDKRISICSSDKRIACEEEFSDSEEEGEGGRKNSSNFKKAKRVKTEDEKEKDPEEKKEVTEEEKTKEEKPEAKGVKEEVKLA
T4 sequence (Q92769 whole entry): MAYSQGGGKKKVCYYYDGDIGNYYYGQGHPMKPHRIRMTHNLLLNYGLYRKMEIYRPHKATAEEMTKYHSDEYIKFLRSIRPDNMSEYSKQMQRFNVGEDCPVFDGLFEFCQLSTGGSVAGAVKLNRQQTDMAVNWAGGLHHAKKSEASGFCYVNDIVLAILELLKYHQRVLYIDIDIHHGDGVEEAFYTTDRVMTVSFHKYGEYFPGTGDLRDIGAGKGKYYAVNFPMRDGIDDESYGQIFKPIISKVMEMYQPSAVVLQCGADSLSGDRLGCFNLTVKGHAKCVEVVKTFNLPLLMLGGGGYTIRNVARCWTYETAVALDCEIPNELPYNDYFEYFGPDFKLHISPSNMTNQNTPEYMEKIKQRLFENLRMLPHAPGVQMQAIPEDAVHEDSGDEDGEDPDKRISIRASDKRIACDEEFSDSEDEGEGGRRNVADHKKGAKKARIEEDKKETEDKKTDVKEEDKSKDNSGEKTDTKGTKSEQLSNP

For `COc1cc(Nc2nc(N3CCN(c4ncc(C(=O)NO)cn4)CC3)ncc2Cl)cc(OC)c1` [Compound L20, 2–(4-(5-chloro-4-((3,5-dimethoxyphenyl)amino)pyrimidin-2-yl)piperazin-1-yl)-N-hydroxypyrimidine-5-carboxamide], the 50% inhibitory concentration (IC50) in experiment [1] worked out at 2.23 ± 0.09 µM; in experiment [2], 1.42 ± 0.05 µM; in experiment [3], 1.06 ± 0.03 µM; in experiment [4], 0.76 ± 0.03 µM; in [5] (mean of three experiments), 0.684 ± 0.016 µM; in experiment [6] (CCK-8, 72 h) it was 0.34 ± 0.02 µM. Further, the IC50 in experiment [7] is 3.17 ± 0.15 µM; in [9], 1.98 ± 0.1 µM; in experiment [11] it was 0.97 ± 0.02 µM; in experiment [12] it was over 1000 µM; in [13] (mean of three experiments), 0.217 ± 0.008 µM; in [15], 0.28 ± 0.01 µM. The figures for the concentration for half-maximal inhibition (IC50) in [16] and in experiment [17] (mean of three experiments) were 1.63 ± 0.06 µM and 2.55 ± 0.079 µM, respectively. The “selectivity index HDAC1 compared with HDAC6” value in [5] (HDAC1 vs HDAC6) is over 1462. In addition, the inhibition at 1 µM in experiment [6] (at concentration of 1.0 µM, mean of three experiments, read-out: K562 percentage inhibitory rate) turned out to be 74.2 ± 1.18%. In experiment [8], the “HDACs percentage inhibitory rate” value is 72.52 ± 1.26%. Moreover, the “apoptotic rate of K562 cells” value worked out at 2.51% in experiment [10] (1 µM), 11.87% in experiment [10] (2 µM) and 17.60% in experiment [10] (4 µM). Also, in experiment [13] (HDAC3 vs HDAC6), the “selectivity index HDAC3 compared with HDAC6” value was over 4608. Besides, the “G0/G1 phase ratio of K562 cells” value was 19.34% in [14] (1 µM) and 44.85% in experiment [14] (2 µM). Also, the “selectivity index HDAC2 compared with HDAC6” value in experiment [17] (HDAC2 vs HDAC6) was over 392.
